Test: physchem
Details: octan-1-ol/water, pH 7.4

Point of comparison: `CCCC(C)(COC(N)=O)COC(=O)NC(C)C` (stereo not drawn) [CARISOPRODOL], logD 2.01. Against it:
- C1CCC(NC2CCCCC2)CC1 — lower, -0.38
- CC(O)c1ccc2c(c1)N(CCN1CCC(NCc3ccc4c(n3)NC(=O)CO4)CC1)C(=O)CO2 (stereo not drawn) — lower, 0.25
- CN1C(=O)NC(=O)C(C)(C2=CCCCC2)C1=O (stereo not drawn) [HEXOBARBITAL] — lower, 1.5
- NC(=NCc1ccc(Cl)cc1)SCCCc1cnc[nH]1 [CLOBENPROPIT] — lower, 1.13
- CC(=O)O[C@H]1CC[C@]2(C=O)[C@H]3CC[C@]4(C)[C@@H](C5=CC(=O)OC5)CC[C@]4(O)[C@@H]3CC[C@]2(O)C1 [STROPHANTHIDIN ACETATE] — lower, 0.64
- Cc1ccc(-c2nnc(O)c3ccccc23)c(C)c1 — higher, 3.41
- CN1CC=C(c2cccc(O)c2)CC1 — lower, 0.53
- O=C(c1ccc(C(=C2CCN(Cc3cscn3)CC2)c2cccc3cccnc23)cc1)N1CCC(O)CC1 — within 0.2 log units, 1.89
- CN1CCN(C(=O)OC2c3nccnc3C(=O)N2c2ccc(Cl)cn2)CC1 (stereo not drawn) [ZOPICLONE] — lower, 1.1
- CCN(CC)C(=O)c1ccc([C@H](c2cccc(NC(=O)C3CC3)c2)N2CCN(CCOC)CC2)cc1 — higher, 2.35
- CN(CCO)C(=O)c1ccc([C@H](c2cccc(NC(=O)C3CC3)c2)N2CCN(Cc3ccc(F)cc3)CC2)cc1 — higher, 3.38
- COc1cc2c(c(OC)c1OC)-c1ccc(OC)c(=O)cc1C(NC(C)=O)CC2 (stereo not drawn) — lower, 1.12
- CC(N)Cc1c[nH]c2ccc(OCc3cccs3)cc12 (stereo not drawn) [BW-723C86] — lower, 0.48
- NC(=O)c1cccc(C[C@@H]2C[C@H]3CC[C@@H](C2)N3Cc2ccccc2)c1 — lower, 1.11
- C[C@@H]1CN(C(=O)OC(C)(C)C)CCN1c1ncc(OCc2ccc(S(C)(=O)=O)cc2)cn1 — higher, 3.6

Same assay, conditions: octan-1-ol/water, pH 7.4, LogD7.4

Point of comparison: `CC(C)C(NC(=O)Cn1c(-c2ccccc2)ccc(NC=O)c1=O)C(=O)C(F)(F)F` (stereo not drawn), logD 1.84. Against it:
- CC(O)(C(=O)Nc1ccc(S(=O)(=O)c2ccc(F)cc2)cc1)C(F)(F)F (stereo not drawn) — higher, 3.12
- O=S(=O)(NCC(c1ccccc1)N1CCCCCC1)c1cccnc1 (stereo not drawn) — higher, 2.1
- COCCOc1ccc(Nc2ncc3cc(-c4ccncc4)ccc3n2)cc1 — higher, 3.1
- O=C(N[C@@H](Cc1ccc(CCCCNc2ccccn2)cc1)C(=O)O)c1c(Cl)cccc1Cl — lower, 0.51
- CC(C)C(NC(=O)Cn1c(-c2ccccc2)ncc(NC(=O)OCc2ccccc2)c1=O)C(=O)C(F)(F)F (stereo not drawn) — higher, 2.12
- Oc1ccc(-c2ccc3cc(O)ccc3c2)cc1 — higher, 4
- CC(C)N1CCN(C(=O)NCc2ccc(Cl)c(Cl)c2)CC1 — higher, 2.75
- O=C1Nc2ccc(S(=O)(=O)N3CCC[C@H]3CNc3ccccc3)cc2C1=O — higher, 2.4
- O=C(Nc1nnn[nH]1)c1cc(Oc2ccccc2)c2ccccn2c1=O [QUINOTOLAST] — lower, 0.67
- Cn1c(CN2CCN(c3ccc(Cl)cc3)CC2)nc2ccccc21 — higher, 3.54
- NC(=O)c1c(N)sc2c1CCCC2 — the same, 1.84
- c1ccc(C2OC3(CCNCC3)c3ccccc32)cc1 (stereo not drawn) — lower, 0.75
- COc1ccc(/C=C2/CCc3ccccc3C2=O)cc1CN1CCOCC1 — higher, 3.8
- COc1cc2ncnc(Nc3ccncc3)c2cc1OC — higher, 2.22
- CC(=O)N1CCOc2nc(OCc3ccccc3)ccc21 — higher, 2.4
- C/N=C(\S)n1nc(-c2ccc(Cl)cc2)nc1N — higher, 4.12
- Cc1ccc(C(=O)N(CCCN)Cc2nc3cc(Cl)ccc3c(=O)n2Cc2ccccc2)cc1 — lower, 1.47
- Cc1ccsc1Cn1[nH]c(=O)c2[nH]c3cc(Cl)ccc3c(=O)c2c1=O — lower, 1.15
- Cc1ccc(-n2[nH]c(=O)c3cccnc32)cc1 — higher, 2.1
- CCC(=O)NCC[C@@H]1CCc2ccc3c(c21)CCO3 [RAMELTEON] — higher, 2.57
- COc1cc(F)ccc1-c1cncc(CNC(=O)c2ccccc2)c1 — higher, 3.76
- CC1=C(C2=C(C)C(=O)c3c(cc(O)c(O)c3Cc3ccccc3)C2=O)C(=O)c2cc(O)c(O)c(Cc3ccccc3)c2C1=O — higher, 2.73
- c1ccc2cnccc2c1 [ISOQUINOLINE] — lower, 1.6
- Nc1ccc(Cl)c(-c2nc3ncccc3o2)c1 — within 0.2 log units, 1.97
- Cc1ncc(-c2nc(Nc3ccc(C(=O)N4CCCN(C)CC4)cc3)ncc2F)n1C(C)C — within 0.2 log units, 2.02
- COCCC(=O)NC(C)c1ccc(Nc2ncc3cc(-c4ccncc4)ccc3n2)cc1 (stereo not drawn) — higher, 2.98
- Cc1ncc(-c2ccnc(Nc3ccc(C(=O)NCCN(C)C)c(F)c3)n2)n1C(C)C — within 0.2 log units, 1.96
- Cc1ccc(Oc2ccc(C(=O)NCc3ccncc3)cc2)cc1 — higher, 3.65
- O=C1O[C@@H](COc2ccon2)CN1c1ccc(C2=CCOCC2)c(F)c1 — higher, 2.61
- Oc1ccc2nc(-c3ccccc3)sc2c1 — higher, 3.99
- O=c1[nH]c2c(O)ccc([C@@H](O)CNCCCSCCOCCc3ccccc3)c2s1 — higher, 2.3
- Cc1cc(C)c2c(n1)sc1c(N3CCN(C)CC3)ncnc12 — higher, 3.2
- CC(=O)Nc1ccccc1C — lower, 1
- CCOc1ccc(-c2cnc3n2CCC3)cc1 — higher, 2.65
- Oc1ccc(C2=Cc3ccc(O)cc3OC2)cc1 [IDRONOXIL] — higher, 3.8
- CC(C)C(NC(=O)Cn1c(-c2cccs2)ncc(N)c1=O)C(=O)C(F)(F)F (stereo not drawn) — lower, 0.68
- O=c1cc(-c2ccccc2)oc2cc(O)cc(O)c12 [CHRYSIN] — higher, 3.83
- NS(=O)(=O)c1cccc(Nc2nccc(Nc3c(Cl)ccc4c3OCO4)n2)c1 — higher, 2.97
- COc1ccccc1OCC(O)COC(N)=O (stereo not drawn) [METHOCARBAMOL] — lower, 0.36
- O=c1[nH]c2c(O)ccc([C@@H](O)CNCCc3ccc(CNCCc4c(Cl)cccc4Cl)cc3)c2s1 — higher, 2.3
- CN1CCN(CCCOc2ccc(-c3cc(-c4ccc(F)cc4)no3)cc2)CC1 — higher, 3.81
- CCn1c(=O)c2c(=O)cc(O)oc2c2ccccc21 — lower, 1.13
- O=[N+]([O-])c1ccc(C=NO)o1 — lower, 1.31
- Cc1ccc(-c2ncc(C)n2C)cc1NC(=O)c1ccc(OCc2ccccn2)cc1 — higher, 2.67
- COc1ccc(Cl)cc1C(=O)Nc1nc2ccccc2[nH]1 — higher, 4.05
- C[C@@H]1CCCN1CCc1cc2cc(-c3ccc(C#N)cc3)ccc2o1 — higher, 3.51
- CNC(=O)C1(N2CCCNC2=O)CCN(CC[C@H](CN(C)C(=O)c2c(OC)c(C#N)cc3ccccc23)c2ccc(Cl)c(Cl)c2)CC1 — higher, 2.2
- CC[C@H](NC(=O)c1c(N)c(-c2cccc(F)c2)nc2ccccc12)c1ccccc1 — higher, 4.05
- CCOc1ccccc1-c1ccc2c(c1)C(=O)C(=O)c1ccccc1-2 — higher, 2.67
- CCO/N=C(\c1ccc(Br)cc1)C1CCN(C2(C)CCN(C(=O)c3c(C)cc[n+]([O-])c3C)CC2)CC1 [ANCRIVIROC] — higher, 2.14
- NC1(C(=O)NC(CCCN2CCCC2)c2ccc(Cl)cc2)CCN(c2ncnc3[nH]ccc23)CC1 (stereo not drawn) — lower, 1.3
- O=C1Nc2ccccc2C1(O)c1ccccc1 (stereo not drawn) — within 0.2 log units, 1.71
- FC(F)(F)c1cc(CO[C@H]2CCCN[C@H]2c2ccccc2)cc(C(F)(F)F)c1 — higher, 3.6
- NC(=O)Nc1sc(-c2cc(F)cc(F)c2)cc1C(=O)N[C@H]1CCCNC1 — higher, 2.18
- COc1ccc(OC)c(-c2c(F)ccc3c(N)c(C(=O)NC(C)C)nnc23)c1 — higher, 3.77
- CC(=O)N1CCOc2cc(COc3ccccc3)cnc21 — higher, 2.8
- Cc1ccc(NC(=O)c2ccnc(N3CCOCC3)c2)cc1Nc1ccnc(OCCCN(C)C)n1 — lower, 1.3
- C[C@@H]1CN(C(=O)OCC(F)(F)F)CCN1c1ncc(OCc2ccncc2C#N)cn1 — higher, 3
- Cc1ccc(NC(=O)CCC2CCCCC2)cc1NC(=O)c1ccc(O)cc1 — higher, 4.13
- CC(=O)NCC(NC(=O)C1(N)CCN(c2ncnc3[nH]ccc23)CC1)c1ccc(Cl)cc1 (stereo not drawn) — higher, 2.4
- CN(C)c1nc(N(C)C)nc(N(C)C)n1 [ALTRETAMINE] — higher, 2.44
- Cc1cc(N)c2cc(NC(=O)CCC(=O)Nc3ccc4nc(C)cc(N)c4c3)ccc2n1 — lower, 1.39
- CCCc1c(OCc2cccc(NC(=O)c3ccccc3C(=O)O)c2)ccc(C(C)=O)c1O — within 0.2 log units, 1.9
- COc1ccccc1Oc1ccc(N(Cc2cccnc2)S(=O)(=O)CC(F)(F)F)cc1 — lower, 1.5
- Nc1c2c(nc3ccc(Br)cc13)N(c1ccccc1)CC2 — higher, 3.12
- CCN(C(=O)Cc1ccc(C#N)cc1)C1CCN(CCC(c2ccccc2)c2ccccc2)CC1 — higher, 3.9
- CCCNC(=O)c1nnc2c(-c3ccccc3)cccc2c1N — higher, 3.8
- C[C@@](O)(C(=O)Nc1ccc(C(=O)N2CCCCC2)cc1Cl)C(F)(F)F — higher, 2.62
- O=S(=O)(Nc1ncc(Cl)s1)c1cc(F)c(Oc2ccc(F)cc2-c2cn[nH]c2)cc1F — higher, 2.7
- CCCCNc1ccc(C(=O)OCCN(C)C)cc1 [TETRACAINE] — higher, 2.11
- O=C(O)COc1ccc(Cl)cc1C1CCCCC1 — lower, 0.93
- CC(C)C[C@H](CO)Nc1nc(SCc2ccccc2F)nc2nc(N)sc12 — higher, 4.5
- Cc1occc(=O)c1OCc1ccc(F)cc1 — within 0.2 log units, 1.91
- CC(C)c1ccccc1Cc1cc(C(=O)Nc2ccc(S(=O)(=O)c3ccccc3C(C)(C)C)cc2)c(O)c(O)c1O — higher, 3.44
- CC(=O)N1CCN(CC(O)COc2ccc(Br)cc2)CC1 (stereo not drawn) — lower, 1.6
- COC(=O)N1CCN(c2ccnc(-n3ccnc3)n2)C(CC(=O)NCc2ccc3c(c2)OCO3)C1 (stereo not drawn) — within 0.2 log units, 1.88
- CONC(=O)c1cnc(N2CCC(NC(=O)c3[nH]c(C)c(Cl)c3Cl)CC2)s1 — higher, 3.1
- N#Cc1cccc(COc2ccc3c(c2)OCCC3=O)c1 — higher, 2.8
- CC[C@H](NC(=O)c1c([S+](C)[O-])c(-c2ccccc2)nc2cc(Br)ccc12)c1ccccc1 (stereo partly drawn) — higher, 3.18
- CC[C@H](NC(=O)c1c([S+](C)[O-])c(-c2ccccc2)nc2ccccc12)c1ccccc1 (stereo partly drawn) — higher, 3.17
- CC(C)C(NC(=O)Cn1c(-c2ccccc2)ccc(NC(=O)CN2CCOCC2)c1=O)C(=O)C(F)(F)F (stereo not drawn) — within 0.2 log units, 2
- Cc1cccc(C(N)=O)c1NC(=O)c1ccccc1 — lower, 1.09
- COc1ccc(OC)c(-c2cccc3c(N)c(C(=O)NC(C)C)nnc23)c1 — higher, 3.65
- COc1cc2ncc(C(N)=O)c(Nc3ccc(F)cc3)c2cc1OC — higher, 2.82
- NC1(C(=O)NC(CS(N)(=O)=O)c2ccc(Cl)cc2)CCN(c2ncnc3[nH]ccc23)CC1 (stereo not drawn) — higher, 2.2
- CN1C(=O)CC(C)(CCc2cccc(-c3ccccc3)c2)N=C1N (stereo not drawn) — within 0.2 log units, 2.03
- CCOC(=O)c1cc2ccc(O)cc2oc1=O — lower, 1.2
- CC1(C)C(=O)Nc2ccccc21 — higher, 2.3
- Cn1c(-c2ccncc2)cc2onc(-c3ccccc3)c2c1=O — higher, 2.61
- Cc1ccccc1N1C(=O)c2cc(S(N)(=O)=O)c(Cl)cc2NC1C (stereo not drawn) [METOLAZONE] — lower, 1.64
- O=C(N[C@@H](Cc1ccc(N2CCN(c3ccccc3)CC2)cc1)C(=O)O)c1c(Cl)cccc1Cl — lower, 0.08

— ChEMBL document CHEMBL3301361, “Experimental in vitro DMPK and physicochemical data on a set of publicly disclosed compounds”
